{
  "source": "patent US12281057B2",
  "about": "(VERTEX PHARMACEUTICALS INCORPORATED, priority 2017, dated 2025)",
  "biological_target": "truncated form of human NaV 1.8 with full channel activity (Homo sapiens, UniProt Q9Y5Y9)",
  "sequence (Q9Y5Y9 126-1722 limits assumed)": "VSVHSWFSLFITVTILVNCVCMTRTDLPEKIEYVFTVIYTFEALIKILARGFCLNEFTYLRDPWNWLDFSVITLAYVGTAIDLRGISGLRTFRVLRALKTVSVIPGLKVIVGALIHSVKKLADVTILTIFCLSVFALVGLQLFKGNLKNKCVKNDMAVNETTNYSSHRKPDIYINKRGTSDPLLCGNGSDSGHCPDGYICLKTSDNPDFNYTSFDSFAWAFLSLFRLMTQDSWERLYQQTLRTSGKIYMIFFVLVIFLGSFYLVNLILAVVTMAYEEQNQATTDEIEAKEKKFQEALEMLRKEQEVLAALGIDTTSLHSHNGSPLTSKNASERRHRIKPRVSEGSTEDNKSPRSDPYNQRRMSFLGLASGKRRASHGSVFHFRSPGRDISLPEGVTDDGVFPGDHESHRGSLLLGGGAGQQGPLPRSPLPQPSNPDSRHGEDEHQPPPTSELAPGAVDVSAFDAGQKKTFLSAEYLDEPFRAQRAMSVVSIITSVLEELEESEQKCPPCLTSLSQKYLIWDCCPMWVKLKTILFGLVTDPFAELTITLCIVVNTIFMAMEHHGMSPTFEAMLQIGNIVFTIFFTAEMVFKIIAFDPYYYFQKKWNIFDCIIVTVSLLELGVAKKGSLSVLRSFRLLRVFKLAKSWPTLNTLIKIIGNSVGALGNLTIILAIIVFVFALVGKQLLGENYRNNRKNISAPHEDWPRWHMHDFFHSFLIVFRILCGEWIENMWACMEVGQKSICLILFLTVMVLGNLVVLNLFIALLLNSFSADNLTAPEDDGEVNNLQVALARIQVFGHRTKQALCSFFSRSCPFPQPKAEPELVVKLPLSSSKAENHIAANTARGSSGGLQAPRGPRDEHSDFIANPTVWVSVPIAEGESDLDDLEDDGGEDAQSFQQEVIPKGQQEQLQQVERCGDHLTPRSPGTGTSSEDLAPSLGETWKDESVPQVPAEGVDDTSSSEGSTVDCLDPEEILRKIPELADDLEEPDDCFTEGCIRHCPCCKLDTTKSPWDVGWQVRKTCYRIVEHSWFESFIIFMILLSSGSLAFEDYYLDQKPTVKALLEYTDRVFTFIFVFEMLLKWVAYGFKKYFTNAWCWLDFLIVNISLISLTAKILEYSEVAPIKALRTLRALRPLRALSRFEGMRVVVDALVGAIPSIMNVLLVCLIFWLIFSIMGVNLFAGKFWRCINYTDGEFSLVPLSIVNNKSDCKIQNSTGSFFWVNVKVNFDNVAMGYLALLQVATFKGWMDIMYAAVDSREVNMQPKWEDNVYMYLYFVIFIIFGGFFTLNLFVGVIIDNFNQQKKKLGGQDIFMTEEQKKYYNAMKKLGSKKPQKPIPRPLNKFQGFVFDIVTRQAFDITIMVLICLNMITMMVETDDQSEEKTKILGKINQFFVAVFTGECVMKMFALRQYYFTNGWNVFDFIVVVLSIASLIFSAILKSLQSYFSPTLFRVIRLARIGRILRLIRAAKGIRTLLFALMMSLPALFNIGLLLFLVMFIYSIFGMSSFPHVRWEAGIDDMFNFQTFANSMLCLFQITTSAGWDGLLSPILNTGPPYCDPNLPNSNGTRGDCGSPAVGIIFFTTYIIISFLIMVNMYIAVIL",
  "experiment": "E-VIPR Assay Method A for detecting and measuring Nav inhibition (HEK cells, membrane potential FRET dyes, electrical stimulation)",
  "assay_type": "cell-based",
  "conditions": "HEK cells expressing human NaV 1.8, HS (human serum) in compound loading buffer, 11 point dose response, top dose 3 μM",
  "method_in_brief": "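Read-out: FRET membrane-potential dye ratio (460/580 nm) before and during E-VIPR field stimulation at 10 Hz for 10 s, expressed as % activity between DMSO and positive controls. Cells: HEK with truncated human NaV1.8; compound preincubated 30 min at room temp, final DMSO 0.625%.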",
  "key": {"[1]": {"conditions": "Table 20A, read-out: Nav 1.8 MedChem Optical Assay EVIPR Assay Method A HS IC50"}, "[2]": {"conditions": "Table 20, read-out: Nav 1.8 MedChem Optical Assay EVIPR Assay Method A HS IC50"}},
  "note": "Read-outs that look alike come from different tables or passages of the source.",
  "data": [
    {"compound": "COc1cc(OC(F)(F)F)ccc1Oc1cc(Cl)cc(F)c1C(=O)Nc1cc(C(N)=O)ncc1C", "note": "[Compound 130, 4-[[4-Chloro-2-fluoro-6-[2-methoxy-4-(trifluoromethoxy)phenoxy]benzoyl]amino]-5-methyl-pyridine-2-carboxamide]", "values": [
      {"measurement": "IC50", "setting": "[1]", "value": 27, "unit": "nM"}
    ]},
    {"compound": "[2H]C([2H])([2H])Oc1cc(OC(F)(F)F)ccc1Oc1ccc(OC(F)(F)F)c(F)c1C(=O)Nc1ccc(C(N)=O)nc1", "note": "[Compound 167, 5-[[2-fluoro-6-[2-(trideuteriomethoxy)-4-(trifluoromethoxy)phenoxy]-3-(trifluoromethoxy)benzoyl]amino]pyridine-2-carboxamide]", "values": [
      {"measurement": "IC50", "setting": "[1]", "value": 45, "unit": "nM"}
    ]},
    {"compound": "COc1c(C(F)(F)F)ccc(Oc2ccc(OC(F)(F)F)cc2)c1C(=O)Nc1ccnc(C(N)=O)c1", "note": "[Compound 91, 4-[[2-Methoxy-6-[4-(trifluoromethoxy)phenoxy]-3-(trifluoromethyl)benzoyl]amino]pyridine-2-carboxamide]", "values": [
      {"measurement": "IC50", "setting": "[1]", "value": 40, "unit": "nM"}
    ]},
    {"compound": "NC(=O)c1cc(NC(=O)c2c(Oc3ccc(OC(F)(F)F)cc3)ccc(C(F)(F)F)c2F)ccn1", "note": "[Compound 48, 4-[[2-fluoro-6-[4-(trifluoromethoxy)phenoxy]-3-(trifluoromethyl)benzoyl]amino]pyridine-2-carboxamide]", "values": [
      {"measurement": "IC50", "setting": "[1]", "value": 23, "unit": "nM"}
    ]},
    {"compound": "COc1cc(OC(F)(F)F)ccc1Oc1cc([C@@H]2C[C@H]2C)ncc1C(=O)Nc1ccc(F)c(C(N)=O)c1", "note": "(single isomer, unassigned) [Compound 114]", "values": [
      {"measurement": "IC50", "setting": "[1]", "value": 17, "unit": "nM"}
    ]},
    {"compound": "COc1cc(OC(F)(F)F)ccc1Oc1ccc(C(F)(F)F)c(F)c1C(=O)Nc1cncc(C(N)=O)c1", "note": "[Compound 52, 5-[[2-fluoro-6-[2-methoxy-4-(trifluoromethoxy)phenoxy]-3-(trifluoromethyl)benzoyl]amino]pyridine-3-carboxamide]", "values": [
      {"measurement": "IC50", "setting": "[1]", "value": 14, "unit": "nM"}
    ]},
    {"compound": "NC(=O)c1cc(NC(=O)c2c(Oc3ccc(OC(F)(F)F)c(F)c3)ccc(C(F)(F)F)c2F)ccn1", "note": "[Compound 57, 4-[[2-fluoro-6-[3-fluoro-4-(trifluoromethoxy)phenoxy]-3-(trifluoromethyl)benzoyl]amino]pyridine-2-carboxamide]", "values": [
      {"measurement": "IC50", "setting": "[1]", "value": 17, "unit": "nM"}
    ]},
    {"compound": "COc1cc(OC(F)(F)F)ccc1Oc1cc(Cl)c(C)c(F)c1C(=O)Nc1cc(C(N)=O)ncc1C", "note": "[Compound 211, 4-[[4-Chloro-2-fluoro-6-[2-methoxy-4-(trifluoromethoxy)phenoxy]-3-methyl-benzoyl]amino]-5-methyl-pyridine-2-carboxamide]", "values": [
      {"measurement": "IC50", "setting": "[1]", "value": 6, "unit": "nM"}
    ]},
    {"compound": "COc1cc(OC(F)(F)F)ccc1Oc1cncc(F)c1C(=O)Nc1ccnc(C(N)=O)c1", "note": "[Compound 165, N-(2-Carbamoyl-4-pyridyl)-3-fluoro-5-[2-methoxy-4-(trifluoromethoxy)phenoxy]pyridine-4-carboxamide]", "values": [
      {"measurement": "IC50", "setting": "[1]", "value": 340, "unit": "nM"}
    ]},
    {"compound": "COc1cc(OC(F)(F)F)ccc1Oc1ccc(C(F)(F)F)c(OC)c1C(=O)Nc1ccc(C(N)=O)nc1", "note": "[Compound 202, 5-[[2-Methoxy-6-[2-methoxy-4-(trifluoromethoxy)phenoxy]-3-(trifluoromethyl)benzoyl]amino]pyridine-2-carboxamide]", "values": [
      {"measurement": "IC50", "setting": "[1]", "value": 40, "unit": "nM"}
    ]},
    {"compound": "COc1cc(OC(F)(F)F)ccc1Oc1cncc(F)c1C(=O)Nc1ccc(F)c(C(N)=O)c1", "note": "[Compound 117, N-(3-Carbamoyl-4-fluoro-phenyl)-3-fluoro-5-[2-methoxy-4-(trifluoromethoxy)phenoxy]pyridine-4-carboxamide]", "values": [
      {"measurement": "IC50", "setting": "[1]", "value": 180, "unit": "nM"}
    ]},
    {"compound": "[2H]C([2H])([2H])Oc1c(Oc2ccc(OC(F)(F)F)c(F)c2C(=O)Nc2cc(C(N)=O)ncc2C)ccc(OC(F)(F)F)c1F", "note": "[Compound 231, 4-[[2-Fluoro-6-[3-fluoro-2-(trideuteriomethoxy)-4-(trifluoromethoxy)phenoxy]-3-(trifluoromethoxy)benzoyl]amino]-5-methyl-pyridine-2-carboxamide]", "values": [
      {"measurement": "IC50", "setting": "[1]", "value": 9, "unit": "nM"}
    ]},
    {"compound": "[2H]C([2H])([2H])Oc1c(Oc2ccc(C(F)(F)F)c(F)c2C(=O)Nc2cc(C(N)=O)ncc2C)ccc(OC(F)(F)F)c1F", "note": "[Compound 227, 4-[[2-Fluoro-6-[3-fluoro-2-(trideuteriomethoxy)-4-(trifluoromethoxy)phenoxy]-3-(trifluoromethyl)benzoyl]amino]-5-methyl-pyridine-2-carboxamide]", "values": [
      {"measurement": "IC50", "setting": "[1]", "value": 2, "unit": "nM"}
    ]},
    {"compound": "COc1cc(OC(F)(F)F)ccc1Oc1ccc(C(F)(F)F)c(F)c1C(=O)Nc1cccc(C(N)=O)n1", "note": "[Compound 169, 6-[[2-Fluoro-6-[2-methoxy-4-(trifluoromethoxy)phenoxy]-3-(trifluoromethyl)benzoyl]amino]pyridine-2-carboxamide]", "values": [
      {"measurement": "IC50", "setting": "[1]", "value": 113, "unit": "nM"}
    ]},
    {"compound": "NC(=O)c1cccc(NC(=O)c2c(Oc3ccc(OC(F)(F)F)cc3)ccc(C(F)(F)F)c2F)c1", "note": "[Compound 47, N-(3-carbamoylphenyl)-2-fluoro-6-[4-(trifluoromethoxy)phenoxy]-3-(trifluoromethyl)benzamide]", "values": [
      {"measurement": "IC50", "setting": "[1]", "value": 22, "unit": "nM"}
    ]},
    {"compound": "[2H]C([2H])([2H])Oc1cc(OC(F)(F)F)ccc1Oc1ccc(C(F)(F)F)c(F)c1C(=O)Nc1ccc(C)c(C(N)=O)c1", "note": "[Compound 145, N-(3-carbamoyl-4-methyl-phenyl)-2-fluoro-6-[2-(trideuteriomethoxy)-4-(trifluoromethoxy)phenoxy]-3-(trifluoromethyl)benzamide]", "values": [
      {"measurement": "IC50", "setting": "[1]", "value": 9, "unit": "nM"}
    ]},
    {"compound": "[2H]C([2H])([2H])Oc1c(Oc2ccc(OC(F)(F)F)c(NC)c2C(=O)Nc2ccnc(C(=O)NC)c2)ccc(OC(F)(F)F)c1F", "note": "[Compound 230, 4-[[6-[3-Fluoro-2-(trideuteriomethoxy)-4-(trifluoromethoxy)phenoxy]-2-(methylamino)-3-(trifluoromethoxy)benzoyl]amino]-N-methyl-pyridine-2-carboxamide]", "values": [
      {"measurement": "IC50", "setting": "[1]", "value": 250, "unit": "nM"}
    ]},
    {"compound": "COc1cc(OC(F)(F)F)ccc1Oc1cncc(F)c1C(=O)Nc1ccc(F)c(C(N)=O)n1", "note": "[Compound 164, 3-Fluoro-6-[[3-fluoro-5-[2-methoxy-4-(trifluoromethoxy)phenoxy]pyridine-4-carbonyl]amino]pyridine-2-carboxamide]", "values": [
      {"measurement": "IC50", "setting": "[1]", "value": 1600, "unit": "nM"}
    ]},
    {"compound": "[2H]C([2H])([2H])Oc1cc(OC(F)(F)F)ccc1Oc1ccc(C(F)(F)F)c(F)c1C(=O)Nc1ccnc(C(N)=O)c1", "note": "[Compound 6, 4-[[2-fluoro-6-[2-(trideuteriomethoxy)-4-(trifluoromethoxy)phenoxy]-3-(trifluoromethyl)benzoyl]amino]pyridine-2-carboxamide]", "values": [
      {"measurement": "IC50", "setting": "[2]", "value": 3, "unit": "nM"}
    ]},
    {"compound": "[2H]C([2H])([2H])Oc1c(Oc2ccc(Cl)c(F)c2C(=O)Nc2cc(C(N)=O)ncc2C)ccc(OC(F)(F)F)c1F", "note": "[Compound 240, 4-[[3-chloro-2-fluoro-6-[3-fluoro-2-(trideuteriomethoxy)-4-(trifluoromethoxy)phenoxy]benzoyl]amino]-5-methyl-pyridine-2-carboxamide]", "values": [
      {"measurement": "IC50", "setting": "[1]", "value": 11, "unit": "nM"}
    ]},
    {"compound": "[2H]C([2H])([2H])Oc1c(Oc2cc(Cl)c(C([2H])([2H])[2H])c(F)c2C(=O)Nc2ccnc(C(N)=O)c2)ccc(OC(F)(F)F)c1F", "note": "[Compound 222, 4-[[4-Chloro-2-fluoro-6-[3-fluoro-2-(trideuteriomethoxy)-4-(trifluoromethoxy)phenoxy]-3-(trideuteriomethyl)benzoyl]amino]pyridine-2-carboxamide]", "values": [
      {"measurement": "IC50", "setting": "[1]", "value": 3, "unit": "nM"}
    ]},
    {"compound": "COc1cc(OC(F)(F)F)ccc1Oc1cc(C(F)(F)F)ccc1C(=O)Nc1cccc(C(N)=O)c1", "note": "[Compound 28, N-(3-Carbamoylphenyl)-2-[2-methoxy-4-(trifluoromethoxy)phenoxy]-4-(trifluoromethyl)benzamide]", "values": [
      {"measurement": "IC50", "setting": "[1]", "value": 108, "unit": "nM"}
    ]},
    {"compound": "NC(=O)c1cc(NC(=O)c2c(Oc3ccc(F)cc3)ccc(C(F)(F)F)c2F)ccc1F", "note": "[Compound 25, N-(3-carbamoyl-4-fluoro-phenyl)-2-fluoro-6-(4-fluorophenoxy)-3-(trifluoromethyl)benzamide]", "values": [
      {"measurement": "IC50", "setting": "[2]", "value": 18, "unit": "nM"}
    ]}
  ]
}
